Data published in patent US20150218173A1, “SUBSTITUTED INDAZOL-PYRROLOPYRIMIDINES USEFUL IN THE TREATMENT OF HYPERFOLIFERATIVE DISORDERS” (BAYER PHARMA AKTIENGESELLSCHAFT, priority 2012, published 2015).
pIC50: −log10 of the molar value.

Target: T1, human full-length MKNK1 (Homo sapiens, UniProt Q9BUB5, T385D)
T1 construct: GST (N); purchased Carna Biosciences 02-145; host or cells: insect cells (baculovirus expression system)
Experiment: MKNK1 kinase high ATP assay (TR-FRET)
Format: biochemical
Conditions: high ATP (2 mM final), 15 min preincubation with enzyme
Procedure: MKNK1-inhibitory activity at high ATP of compounds of the present invention after their preincubation with MKNK1 was quantified employing the TR-FRET-based MKNK1 high ATP assay as described in the following paragraphs.
A recombinant fusion protein of Glutathione-S-Transferase (GST, N-terminally) and human full-length MKNK1 (amino acids 1-424 and T344D of accession number BAA 19885.1), expressed in insect cells using baculovirus expression system and purified via glutathione sepharose affinity chromatography, was purchased from Carna Biosciences (product no 02-145) and used as enzyme. As substrate for the kinase reaction the biotinylated peptide biotin-Ahx-IKKRKLTRRKSLKG (C-terminus in amide form) was used, which can be purchased e.g. from the company Biosyntan (Berlin-Buch, Germany).
For the assay 50 nL of a 100 fold concentrated solution of the test compound in DMSO was pipetted into a black low volume 384 well microtiter plate (Greiner Bio-One, Frickenhausen, Germany), 2 μL of a solution of MKNK1 in aqueous assay buffer [50 mM HEPES pH 7.5, 5 mM MgCl2, 1.0 mM dithiothreitol, 0.005% (v/v) Nonidet-P40 (Sigma)] was added and the mixture was incubated for 15 min at 22° C. to allow pre-binding of the test compounds to the enzyme before the start of the kinase reaction. Then the kinase reaction was started by the addition of 3 μL of a solution of adenosine-tri-phosphate (ATP, 3.3 mM=>final conc. in the 5 μL assay volume is 2 mM) and substrate (0.1 μM=>final conc. in the 5 μL assay volume is 0.06 μM) in assay buffer and the resulting mixture was incubated for a reaction time of 30 min at 22° C. The concentration of MKNK1 was adjusted depending of the activity of the enzyme lot and was chosen appropriate to have the assay in the linear range, typical concentrations were in the range of 0.003 μg/mL. The reaction was stopped by the addition of 5 μL of a solution of TR-FRET detection reagents (5 nM streptavidine-XL665 [Cisbio Bioassays, Codolet, France] and 1 nM anti-ribosomal protein S6 (pSer236)-antibody from Invitrogen [#44921G] and 1 nM LANCE EU-W1024 labeled ProteinG [Perkin-Elmer, product no. AD0071]) in an aqueous EDTA-solution (100 mM EDTA, 0.1% (w/v) bovine serum albumin in 50 mM HEPES pH 7.5).
The resulting mixture was incubated for 1 h at 22° C. to allow the formation of complex between the phosphorylated biotinylated peptide and the detection reagents. Subsequently the amount of phosphorylated substrate was evaluated by measurement of the resonance energy transfer from the Eu-chelate to the streptavidine-XL. Therefore, the fluorescence emissions at 620 nm and 665 nm after excitation at 350 nm were measured in a TR-FRET reader, e.g. a Rubystar (BMG Labtechnologies, Offenburg, Germany) or a Viewlux (Perkin-Elmer). The ratio of the emissions at 665 nm and at […] was taken as the measure for the amount of phosphorylated substrate. The data were normalised (enzyme reaction without inhibitor=0% inhibition, all other assay components but no enzyme=100% inhibition).

T1 sequence (Q9BUB5 1-424 isoform Q9BUB5-2 T344D): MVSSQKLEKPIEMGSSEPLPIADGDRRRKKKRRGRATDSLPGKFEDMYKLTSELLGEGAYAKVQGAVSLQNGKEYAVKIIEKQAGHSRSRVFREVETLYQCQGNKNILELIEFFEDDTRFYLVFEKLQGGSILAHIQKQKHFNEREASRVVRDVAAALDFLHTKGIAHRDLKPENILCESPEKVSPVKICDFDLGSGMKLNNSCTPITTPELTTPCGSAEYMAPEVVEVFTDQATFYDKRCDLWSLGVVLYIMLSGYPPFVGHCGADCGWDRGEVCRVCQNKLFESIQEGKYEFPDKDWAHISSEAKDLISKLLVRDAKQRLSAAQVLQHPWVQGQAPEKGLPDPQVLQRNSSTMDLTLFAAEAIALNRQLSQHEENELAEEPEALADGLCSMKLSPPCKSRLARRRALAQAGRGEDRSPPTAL

pIC50	SMILES
7.24	C[C@@H]1COCCN1C(=O)c1[nH]c2ncnc(Nc3ccc4[nH]ncc4c3)c2c1Br [Example 42, [5-Bromo-4-(1H-indazol-5-ylamino)-7H-pyrrolo[2,3-d]pyrimidin-6-yl][(3R)-3-methylmorpholin-4-yl]methanone]
8.30	O=C(O)c1[nH]c2ncnc(Nc3ccc4[nH]ncc4c3)c2c1Br [Example 31, 5-Bromo-4-(1H-indazol-5-ylamino)-7H-pyrrolo[2,3-d]pyrimidine-6-carboxylic acid]
7.12	C[C@H]1COCCN1C(=O)c1[nH]c2ncnc(Nc3ccc4[nH]ncc4c3)c2c1Br [Example 43, [5-Bromo-4-(1H-indazol-5-ylamino)-7H-pyrrolo[2,3-d]pyrimidin-6-yl][(3S)-3-methylmorpholin-4-yl]methanone]
7.10	c1ccc(CCc2cc3c(Nc4ccc5[nH]ncc5c4)ncnc3[nH]2)cc1 [Example 26, N-(1H-Indazol-5-yl)-6-(2-phenylethyl)-7H-pyrrolo[2,3-d]pyrimidin-4-amine]
8.22	C(=C\c1cc2c(Nc3ccc4[nH]ncc4c3)ncnc2[nH]1)/c1ccccc1 [Example 10, N-(1H-Indazol-5-yl)-6-[(E)-2-phenylethenyl]-7H-pyrrolo[2,3-d]pyrimidin-4-amine]
7.51	Cc1cc2c(Nc3ccc4[nH]ncc4c3)ncnc2[nH]1 [Example 7, N-(1H-Indazol-5-yl)-6-methyl-7H-pyrrolo[2,3-d]pyrimidin-4-amine]
7.43	FC(F)(F)c1c[nH]c2ncnc(Nc3ccc4[nH]ncc4c3)c12 [Example 35, N-(1H-Indazol-5-yl)-5-(trifluoromethyl)-7H-pyrrolo[2,3-d]pyrimidin-4-amine]
7.43	OCc1c[nH]c2ncnc(Nc3ccc4[nH]ncc4c3)c12 [Example 41, [4-(1H-indazol-5-ylamino)-7H-pyrrolo[2,3-d]pyrimidin-5-yl]methanol]
9.00	O=S(=O)(c1ccccc1)c1cc2c(Nc3ccc4[nH]ncc4c3)ncnc2[nH]1 [Example 36, N-(1H-Indazol-5-yl)-6-(phenylsulfonyl)-7H-pyrrolo[2,3-d]pyrimidin-4-amine]
8.05	c1cncc(-c2c[nH]c3ncnc(Nc4ccc5[nH]ncc5c4)c23)c1 [Example 13, N-(1H-Indazol-5-yl)-5-(pyridin-3-yl)-7H-pyrrolo[2,3-d]pyrimidin-4-amine]
8.70	Cc1ccc(S(=O)(=O)c2cc3c(Nc4ccc5[nH]ncc5c4)ncnc3[nH]2)cc1 [Example 37, N-(1H-Indazol-5-yl)-6-[(4-methylphenyl)sulfonyl]-7H-pyrrolo[2,3-d]pyrimidin-4-amine]
7.96	CS(=O)(=O)c1cc2c(Nc3ccc4[nH]ncc4c3)ncnc2[nH]1 [Example 5, N-(1H-Indazol-5-yl)-6-(methylsulfonyl)-7H-pyrrolo[2,3-d]pyrimidin-4-amine]
9.00	O=S(=O)(c1ccc(Cl)cc1)c1cc2c(Nc3ccc4[nH]ncc4c3)ncnc2[nH]1 [Example 38, 6-[(4-Chlorophenyl)sulfonyl]-N-(1H-indazol-5-yl)-7H-pyrrolo[2,3-d]pyrimidin-4-amine]
8.40	C=C(C)c1cc2c(Nc3ccc4[nH]ncc4c3)ncnc2[nH]1 [Example 8, N-(1H-indazol-5-yl)-6-(prop-1-en-2-yl)-7H-pyrrolo[2,3-d]pyrimidin-4-amine]
7.89	CCCc1[nH]c2ncnc(Nc3ccc4[nH]ncc4c3)c2c1CC [Example 34, 5-Ethyl-N-(1H-indazol-5-yl)-6-propyl-7H-pyrrolo[2,3-d]pyrimidin-4-amine]
8.10	O=C(c1cc2c(Nc3ccc4[nH]ncc4c3)ncnc2[nH]1)N1CCCC1 [Example 21, [4-(1H-Indazol-5-ylamino)-7H-pyrrolo[2,3-d]pyrimidin-6-yl](pyrrolidin-1-yl)methanone]

pIC50	SMILES
7.41	CC(C)c1cc2c(Nc3ccc4[nH]ncc4c3)ncnc2[nH]1 [Example 19, N-(1H-Indazol-5-yl)-6-(propan-2-yl)-7H-pyrrolo[2,3-d]pyrimidin-4-amine]
7.80	Fc1ccc(-c2c[nH]c3ncnc(Nc4ccc5[nH]ncc5c4)c23)cc1 [Example 12, 5-(4-Fluorophenyl)-N-(1H-indazol-5-yl)-7H-pyrrolo[2,3-d]pyrimidin-4-amine]
8.30	CN(C)CCCNC(=O)c1cc2c(Nc3ccc4[nH]ncc4c3)ncnc2[nH]1 [Example 27, N-[3-(Dimethylamino)propyl]-4-(1H-indazol-5-ylamino)-7H-pyrrolo[2,3-d]pyrimidine-6-carboxamide]
8.15	C=Cc1cc2c(Nc3ccc4[nH]ncc4c3)ncnc2[nH]1 [Example 9, 6-Ethenyl-N-(1H-indazol-5-yl)-7H-pyrrolo[2,3-d]pyrimidin-4-amine]
8.52	CCOC(=O)c1[nH]c2ncnc(Nc3ccc4[nH]ncc4c3)c2c1Br [Example 30, Ethyl 5-bromo-4-(1H-indazol-5-ylamino)-7H-pyrrolo[2,3-d]pyrimidine-6-carboxylate]
8.05	CN1CCN(C(=O)c2cc3c(Nc4ccc5[nH]ncc5c4)ncnc3[nH]2)CC1 [Example 23, [4-(1H-Indazol-5-ylamino)-7H-pyrrolo[2,3-d]pyrimidin-6-yl](4-methylpiperazin-1-yl)methanone]
7.49	Clc1cc2c(Nc3ccc4[nH]ncc4c3)ncnc2[nH]1 [Example 28, 6-Chloro-N-(1H-indazol-5-yl)-7H-pyrrolo[2,3-d]pyrimidin-4-amine]
8.22	c1cc(-c2c[nH]c3ncnc(Nc4ccc5[nH]ncc5c4)c23)ccn1 [Example 14, N-(1H-Indazol-5-yl)-5-(pyridin-4-yl)-7H-pyrrolo[2,3-d]pyrimidin-4-amine]
7.54	CCc1c[nH]c2ncnc(Nc3ccc4[nH]ncc4c3)c12 [Example 40, 5-Ethyl-N-(1H-indazol-5-yl)-7H-pyrrolo[2,3-d]pyrimidin-4-amine]
8.10	O=C(NC1CCOCC1)c1cc2c(Nc3ccc4[nH]ncc4c3)ncnc2[nH]1 [Example 25, 4-(1H-Indazol-5-ylamino)-N-(tetrahydro-2H-pyran-4-yl)-7H-pyrrolo[2,3-d]pyrimidine-6-carboxamide]
7.92	C1=C(c2c[nH]c3ncnc(Nc4ccc5[nH]ncc5c4)c23)CCOC1 [Example 17, 5-(3,6-Dihydro-2H-pyran-4-yl)-N-(1H-indazol-5-yl)-7H-pyrrolo[2,3-d]pyrimidin-4-amine]
8.70	C1=C(c2cc3c(Nc4ccc5[nH]ncc5c4)ncnc3[nH]2)CCOC1 [Example 16, 6-(3,6-Dihydro-2H-pyran-4-yl)-N-(1H-indazol-5-yl)-7H-pyrrolo[2,3-d]pyrimidin-4-amine]
8.05	O=C(NCCO)c1cc2c(Nc3ccc4[nH]ncc4c3)ncnc2[nH]1 [Example 20, N-(2-Hydroxyethyl)-4-(1H-indazol-5-ylamino)-7H-pyrrolo[2,3-d]pyrimidine-6-carboxamide]
7.89	CCOC(=O)c1[nH]c2ncnc(Nc3ccc4[nH]ncc4c3)c2c1C [Example 29, Ethyl 4-(1H-indazol-5-ylamino)-5-methyl-7H-pyrrolo[2,3-d]pyrimidine-6-carboxylate]
7.74	Cc1c(C(=O)O)[nH]c2ncnc(Nc3ccc4[nH]ncc4c3)c12 [Example 32, 4-(1H-Indazol-5-ylamino)-5-methyl-7H-pyrrolo[2,3-d]pyrimidine-6-carboxylic acid]
